How the values were obtained:
hP2X2/3 = molecular target: T1, hP2X2/3 (Homo sapiens, UniProt P56373+Q9UBL9); test: FLIPR intracellular calcium assay, hP2X2/3; type: cell-based; details: human P2X2/3-TRex293 cells, agonist at EC75
T1 construct: host or cells: TRex293 (hP2X2/3-TRex293), doxycycline-induced
T1 sequence (P56373 1-397): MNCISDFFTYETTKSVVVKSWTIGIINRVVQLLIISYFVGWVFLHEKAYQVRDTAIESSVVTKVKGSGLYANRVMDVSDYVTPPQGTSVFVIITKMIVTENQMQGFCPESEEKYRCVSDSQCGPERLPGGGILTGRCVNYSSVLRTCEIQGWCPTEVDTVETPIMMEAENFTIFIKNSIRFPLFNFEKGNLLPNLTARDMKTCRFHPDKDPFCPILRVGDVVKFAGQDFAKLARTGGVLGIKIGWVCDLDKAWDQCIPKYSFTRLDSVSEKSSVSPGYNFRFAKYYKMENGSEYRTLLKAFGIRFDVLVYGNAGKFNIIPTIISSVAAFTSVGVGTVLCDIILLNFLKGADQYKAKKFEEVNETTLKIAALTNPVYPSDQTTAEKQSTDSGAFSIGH
T1 sequence (Q9UBL9 1-471): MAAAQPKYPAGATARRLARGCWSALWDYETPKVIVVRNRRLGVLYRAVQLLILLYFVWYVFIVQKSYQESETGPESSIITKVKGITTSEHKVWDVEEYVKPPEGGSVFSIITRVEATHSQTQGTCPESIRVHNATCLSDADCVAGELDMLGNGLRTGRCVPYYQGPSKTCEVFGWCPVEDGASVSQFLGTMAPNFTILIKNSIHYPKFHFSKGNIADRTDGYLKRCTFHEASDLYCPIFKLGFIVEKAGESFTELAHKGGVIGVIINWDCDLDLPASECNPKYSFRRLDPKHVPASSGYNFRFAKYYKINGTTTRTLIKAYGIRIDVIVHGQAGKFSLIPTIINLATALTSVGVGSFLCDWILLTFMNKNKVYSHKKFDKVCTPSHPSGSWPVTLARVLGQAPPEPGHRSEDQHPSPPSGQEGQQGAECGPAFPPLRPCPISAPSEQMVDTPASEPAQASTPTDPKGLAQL
Source text: (§1) The FLIPR® assay utilizes cells which express human or rat P2X3 or P2X2/3 receptors. Recombinant cells expressing hP2X3 (Cat #6188) and hP2X2/3 (Cat #6179) were procured from Chantest Corp. Rat P2X2 (NCBI Accession No: U14414) was amplified by PCR from PC12 cDNA (a rat adrenal medulla cell line). The PCR product obtained containing the protein coding sequence of rat P2X2 was cloned into EcoRV-digested and dephosphorylated vector plRES-puro3 within the multiple cloning site (MCS). See, FIG. 1A.
(§2) (i) Intracellular Calcium Assay Protocol for Screening Compounds
(§3) Cryo-vial containing 6×10^6 cells (human P2X3-HEK/human P2X2/3-TRex293/rat P2X2/3-TRex293/rat P2X3 TRex-CHO) was thawed in a 37° C. water bath. Cells were suspended in 20 mL of respective cell plating media (See annexure for composition) in a 50 mL centrifuge tube. The cell viability was checked with the help of Trypan Blue dye. Upon washing, cells were plated in a black 384-well clear bottomed, sterile poly-D-lysine coated plate such that, each well contained 10,000 cells (15,000/well for hP2X3) in 30 μL cell plating media. The plate was incubated in a 5% CO2 incubator at 37° C. for 24 h.
(§4) The next day, prior to the assay, the cell plating media was removed from each well by decanting and gentle tapping. Thirty μL of FLIPR Calcium 4 dye solution was added to each well. The plate was incubated at 37° C. for 45 min (60 min for hP2X3). The plate was next equilibrated at room temperature for 15 minutes before placing it in a 384 well FLIPR for the assay.
(§5) Compounds were dissolved in DMSO and serially diluted following 11 point half log (3.16 fold) dilution with a starting concentration of 2 mM. Dilutions were mixed with assay buffer just before performing the assay.
(§6) Compounds were added to the respective wells of the assay-ready cell plate with the help of the FLIPR and fluorescence readings were captured for 5 min to observe any possible agonistic property of the compounds. The plate was then incubated at room temperature for 15 min. The cells were stimulated with respective agonist EC75 concentration and the fluorescence readings were captured for another 5 min by FLIPR. The difference in fluorescence readings in presence of the compounds were compared with that of the control wells (wells having no compound) to calculate the inhibitory potency of the compounds. The IC50 values of the compounds were determined using the Graph pad Prism software.
(§7) (ii) Cell Plating Media for hP2X3-HEK and hP2X2/3-TRex293 Cells • DMEM/F12 (1:1) HAM media (Invitrogen; Cat #11039) • 1×NEAA (Invitrogen; Cat #11140) • 25 mM HEPES (Invitrogen; Cat #15630) • 1 mM sodium pyruvate (Invitrogen; Cat #11360) • 10% tetracycline negative FBS (PAA; Cat #A15-209) • 1 μg/mL doxycycline (Clontech; Cat #63131) [for hP2X2/3-TRex293 cells only]
(§8) (v) Assay Buffer Composition • HBSS (Invitrogen Cat #14025) • 20 mM HEPES (Invitrogen Cat #15630) • 0.01% F127 (Sigma Cat #P2443) • 1.8 mM CaCl2 (Sigma Cat #C5080) • pH adjusted to 7.4
(§9) (vi) Dye Solution Composition • 1× FLIPR Calcium 4 dye in assay buffer (Molecular devices Cat #R8141) • 1.8 mM Probenecid (Sigma Cat #P8761) • pH adjusted to 7.4

hP2X3 = molecular target: T2, hP2X3 (Homo sapiens, UniProt P56373); test: FLIPR intracellular calcium assay, hP2X3; type: cell-based; details: human P2X3-HEK cells, agonist at EC75
T2 construct: host or cells: HEK (hP2X3-HEK)
T2 sequence (P56373 1-397): T1 sequence (P56373 1-397)
Source text: as §1, §2, §3, §4, §5, §6, §7, §8, §9

IC50 (hP2X2/3) [nM] | IC50 (hP2X3) [nM] | SMILES
1000 to 10000 | 1 to 100 | COCC(C)n1ncc2nc(N3CCN(C(C)=O)CC3)nc(N[C@H](C)c3cnc4ccccc4c3)c21 (stereo partly shown) [Example 24]
1000 to 10000 | 1 to 100 | CC(=O)N1CCN(c2nc(N[C@H](C)c3cnc4ccccc4c3)c3c(cnn3CC3CCC3)n2)CC1 [Example 32]
1000 to 10000 | 1 to 100 | CCOc1ccc([C@H](C)Nc2nc(N3CCN(C(C)=O)CC3)nc3cnn(C(CC)CC)c23)cc1 [Example 33]
100 to 1000 | 1 to 100 | CCC(CC)n1ncc2nc(N3CCN(C(C)=O)CC3)nc(N[C@H](C)c3ccc4ccccc4c3)c21 [Example 40]
100 to 1000 | 1 to 100 | CCC(CC)n1ncc2nc(N3CCN(C(C)=O)CC3)nc(NC(C)c3cnc4ccc(F)cc4c3)c21 (stereo not shown) [Example 42]
1 to 100 | 1 to 100 | CCC(CC)n1ncc2nc(N3CCN(C(N)=O)CC3)nc(N[C@H](C)c3cnc4ccccc4c3)c21 [Example 51]
100 to 1000 | 1 to 100 | CCC(CC)n1ncc2nc(N3CCN(C(C)=O)CC3)nc(NC(C)c3ccc4oc(C5CC5)cc4c3)c21 (stereo not shown) [Example 55]
1000 to 10000 | 1 to 100 | CCC(C)n1ncc2nc(N3CCN(C(C)=O)CC3)nc(NC(c3ccc(-c4ccccc4)nc3)C3CC3)c21 (stereo not shown) [Example 58]
100 to 1000 | 1 to 100 | CC(C)n1ncc2nc(N3CCN(C)C(=O)C3)nc(N[C@@H](c3cnc4ccccc4c3)C3CC3)c21 [Example 59]
100 to 1000 | 1 to 100 | CC(=O)N1CCN(c2nc(N[C@@H](c3cnc4ccccc4c3)C3CC3)c3c(cnn3C(C)C(C)C)n2)CC1 (stereo partly shown) [Example 62]
1 to 100 | 1 to 100 | CC[C@H](C)n1ncc2nc(N3CCN(C(N)=O)CC3)nc(N[C@@H](c3cnc4ccccc4c3)C3CC3)c21 [Example 69]
1 to 100 | 1 to 100 | CC[C@@H](C)n1ncc2nc(N3CCN(C(N)=O)CC3)nc(N[C@@H](c3cnc4ccccc4c3)C3CC3)c21 [Example 70]

Continued, compound first:

SMILES | IC50 (hP2X2/3) [nM] | IC50 (hP2X3) [nM]
CCN1CCN(c2nc(N[C@H](C)c3cnc4ccccc4c3)c3c(cnn3C(C)C)n2)CC1=O [Example 23] | 1000 to 10000 | 1 to 100
CC(=O)N1CCN(c2nc(N[C@H](C)c3cnc4ccccc4c3)c3c(cnn3C3CCCC3)n2)CC1 [Example 25] | 1000 to 10000 | 1 to 100
CCC(CC)n1ncc2nc(N3CCN(C(C)=O)CC3)nc(NCC3(c4ccc(Cl)cc4)CCC3)c21 [Example 29] | 1000 to 10000 | 1 to 100
CCOc1ccc(C(C)Nc2nc(N3CCN(C(C)=O)CC3)nc3cnn(C(CC)CC)c23)cc1 (stereo not shown) [Example 30] | 1000 to 10000 | 1 to 100
CCC(C)n1ncc2nc(N3CCN(C(C)=O)CC3)nc(NCC3(c4ccc(Cl)cc4)CCC3)c21 (stereo not shown) [Example 31] | 1000 to 10000 | 1 to 100
CC(=O)N1CCN(c2nc(N[C@H](C)c3cnc4ccccc4c3)c3c(cnn3C(C3CC3)C3CC3)n2)CC1 [Example 34] | 1 to 100 | 1 to 100
CCC(CC)n1ncc2nc(N3CCN(C(C)=O)CC3)nc(N[C@H](CC)c3cnc4ccccc4c3)c21 [Example 35] | 100 to 1000 | 1 to 100
CCC(CC)n1ncc2nc(N3CCN(C(C)=O)CC3)nc(NC(C)c3ccc4occc4c3)c21 (stereo not shown) [Example 39] | 1000 to 10000 | 100 to 1000
CCC(C)n1ncc2nc(N3CCN(C(C)=O)CC3)nc(N[C@H](CC)c3cnc4ccccc4c3)c21 (stereo partly shown) [Example 43] | 1000 to 10000 | 1 to 100
CCC(CC)n1ncc2nc(N3CCN(C(C)=O)CC3)nc(N[C@@H](c3cnc4ccccc4c3)C3CC3)c21 [Example 44] | 1 to 100 | 1 to 100
CCC(C)n1ncc2nc(N3CCN(C(C)=O)CC3)nc(NC(C)c3ccc4oc(C)cc4c3)c21 (stereo not shown) [Example 45] | 1000 to 10000 | 1 to 100
CCC(CC)n1ncc2nc(N3CCN(C(C)=O)CC3)nc(NC(C)c3ccc4oc(C)cc4c3)c21 (stereo not shown) [Example 46] | 100 to 1000 | 1 to 100
CCC(CC)n1ncc2nc(N3CCN(C(C)=O)CC3)nc(NC(C)c3ccc(OC(C)C)cc3)c21 (stereo not shown) [Example 47] | 1000 to 10000 | 1 to 100
CC(=O)N1CCN(c2nc(N[C@H](C)c3cnc4ccccc4c3)c3c(cnn3C3CCC3)n2)CC1 [Example 48] | 1000 to 10000 | 1 to 100
C[C@@H](Nc1nc(N2CCN(C)C(=O)C2)nc2cnn(C3CCC3)c12)c1cnc2ccccc2c1 [Example 49] | 1000 to 10000 | 1 to 100
CCC(C)n1ncc2nc(N3CCN(C(C)=O)CC3)nc(NC(C)c3ccc(-c4ccccc4)nc3)c21 (stereo not shown) [Example 52] | 1000 to 10000 | 1 to 100
CCC(C)n1ncc2nc(N3CCN(C(C)=O)CC3)nc(N[C@@H](c3cnc4ccccc4c3)C3CC3)c21 (stereo partly shown) [Example 56] | 100 to 1000 | 1 to 100
CCC(CC)n1ncc2nc(N3CCN(C(C)=O)CC3)nc(NC(C)c3ccc4sccc4c3)c21 (stereo not shown) [Example 57] | 100 to 1000 | 1 to 100
CC(=O)N1CCN(c2nc(N[C@H](C)c3cnc4ccccc4c3)c3c(cnn3C(C)C(C)C)n2)CC1 (stereo partly shown) [Example 60] | 100 to 1000 | 1 to 100
CCC(CC)n1ncc2nc(N3CCN(C(C)=O)CC3)nc(N[C@H](C)c3cnc4ccc(F)cc4c3)c21 [Example 61] | 100 to 1000 | 1 to 100
CCC(CC)n1ncc2nc(N3CCN(C(N)=O)CC3)nc(NCc3cnc4ccccc4c3)c21 [Example 64] | 1000 to 10000 | 1 to 100
CCC(CC)n1ncc2nc(N3CCN(C(C)=O)CC3)nc(NC(c3cnc4ccc(F)cc4c3)C3CC3)c21 (stereo not shown) [Example 65] | 100 to 1000 | 1 to 100
CC(C)n1ncc2nc(N3CCN(C(N)=O)CC3)nc(N[C@@H](c3cnc4ccccc4c3)C3CC3)c21 [Example 66] | 100 to 1000 | 1 to 100
CC[C@H](C)n1ncc2nc(N3CCN(C(N)=O)CC3)nc(NC(C)c3cnc4cc(F)c(F)cc4c3)c21 (stereo partly shown) [Example 68] | 100 to 1000 | 1 to 100
NC(=O)N1CCN(c2nc(N[C@@H](c3cnc4ccccc4c3)C3CC3)c3c(cnn3C3CCOCC3)n2)CC1 [Example 72] | 1000 to 10000 | 1 to 100
CCC(CC)n1ncc2nc(-n3ccnn3)nc(N[C@@H](c3cnc4ccccc4c3)C3CC3)c21 [Example 74] | 100 to 1000 | 1 to 100
